Assay results taken from patent US20250313635A1, “ANTI-INTEGRIN ANTIBODIES AND USES THEREOF” (Merck Sharp & Dohme LLC, priority 2022, published 2025).
Like-named read-outs stand apart in the source and are kept apart here.

How the values were obtained:
mouse αvβ6 = biological target: T1, mouse αvβ6 (Mus musculus, UniProt P43406+Q9Z0T9); assay: Latent TGFβ activation assay, TMLC / CHOK1-integrin co-culture (PAI-1 luciferase); type: cell-based; settings: FIG. 5B
T1 construct: expressed in transfected cells
Experimental: (§1) Latent TGFβ activation assay. Transfected mink lung epithelial cell (TMLC) cell line containing the TGFβ responsive PAI-1 promoter driving luciferase expression (Mazzieri et al, Methods Mol. Biol. 142, 13-27 (2000)) and the CHO-K1 human and mouse αvβ×integrin cell lines were grown under optimized growth conditions to 90% confluency. TMLC cells were trypsinized and plated at 25,000 cells/well in 50 μL in Costar clear bottom white walled plates. In a separate plate, 25 μL of serially diluted antibodies at 4×concentration were added to wells containing 25 μL of either 25,000 cells of human or mouse αvβ×cells. After a brief mixing, the 50 μL mixture was transferred to the TMLC cell plates for a total volume of 100 μL and incubated at 37° C. for 16 hours. 100 μL of ONE-Glo kit (#PRE6120) was added to each well and read after three to five minutes on the Envision plate reader.

human αvβ6 = biological target: T2, human αvβ6 (Homo sapiens, UniProt P06756+P18564); assay: as above; type: cell-based; settings: FIG. 5B
T2 construct: expressed in transfected cells
Experimental: as §1

human αvβ8 = biological target: T3, human αvβ8 (Homo sapiens, UniProt P06756+P26012); assay: as above; type: cell-based; settings: FIG. 5B
T3 construct: expressed in transfected cells
Experimental: as §1

mouse αvβ1 = biological target: T4, mouse αvβ1 (Mus musculus, UniProt P09055+P43406); assay: as above; type: cell-based; settings: FIG. 5B
T4 construct: expressed in transfected cells
Experimental: as §1

mαvβ6 = biological target: T5, mαvβ6 (Mus musculus, UniProt P43406+Q9Z0T9); assay: Mouse AlphaLISA integrin-ligand blocking assay (LAP); type: biochemical; settings: Table 12; read-out: IC50 Mouse integrin AlphaLISA assays mαvβ6
T5 construct: The full extracellular domains for all α and β integrin subunits; (GGGS)3 linker (C); acidic coiled-coil with cysteine (C); GG-Avitag (C); hexa-histidine tag (C); basic coiled-coil with cysteine (C); made in house; host or cells: Expi293 cells
Experimental: (§2) Integrin AlphaLISA assay. In the AlphaLISA integrin assays, we used a HEPES based buffer (25 mM HEPES pH 7.4, 137 mM NaCl, 1 mM MgCl2, 1 mM MnCl2, 2 mM CaCl2, 2.7 mM KCl, and 0.05% Tween 20). Optimal assay conditions were determined with a titration of the reagents for signal noise ratio (S/N), linear range, etc. For the respective integrins, we used the final concentrations described in Table 9.
(§3) Briefly, the testing antibody (8 μL) was added as a 4×(of Final testing concentration) solution in the HEPES buffer described previously into a 384w AlphaPlate™ (Perkin Elmer #6005350). Then the integrin and ligand were added sequentially as 8×(4 μL each). Plates were sealed and incubated at room temperature for two hours. Then 4×acceptor bead solution ([…]) was added, and the plates were resealed and incubated at room temperature (RT) for one hour. Finally, 4×([…]) donor beads solution was added in a darkened room and incubated for 45 minutes at room temperature. Plates were read on the Envision (Perkin Elmer) in AlphaScreen™ mode within three hours of donor bead addition.

mαvβ8 = biological target: T6, mαvβ8 (Mus musculus, UniProt P43406+Q0VBD0); assay: as above; type: biochemical; settings: Table 12; read-out: IC50 Mouse integrin AlphaLISA assays mαvβ8
T6 construct: The full extracellular domains for all α and β integrin subunits; (GGGS)3 linker (C); acidic coiled-coil with cysteine (C); GG-Avitag (C); hexa-histidine tag (C); basic coiled-coil with cysteine (C); made in house; host or cells: Expi293 cells
Experimental: as §2, §3

[1] = osteoporosis patients, 52 weeks; cited from earlier work
CHOK1 parental cells = assay: Cell adhesion assay, CHOK1 parental cells on fibronectin; type: cell-based, hamster; settings: FIG. 11
hαvβ1 = biological target: T7, hαvβ1 (Homo sapiens, UniProt P05556+P06756); assay: Human AlphaLISA integrin-ligand blocking assay (fibronectin); type: biochemical
T7 construct: The full extracellular domains for all α and β integrin subunits; (GGGS)3 linker (C); acidic coiled-coil with cysteine (C); GG-Avitag (C); hexa-histidine tag (C); basic coiled-coil with cysteine (C); made in house; host or cells: Expi293 cells
Experimental: as §2, §3

hα5β1 = biological target: T8, hα5β1 (Homo sapiens, UniProt P05556+P08648); assay: as above; type: biochemical
T8 construct: The full extracellular domains for all α and β integrin subunits; (GGGS)3 linker (C); acidic coiled-coil with cysteine (C); GG-Avitag (C); hexa-histidine tag (C); basic coiled-coil with cysteine (C); made in house; host or cells: Expi293 cells
Experimental: as §2, §3

mouse αvβ3 = biological target: T9, mouse αvβ3 (Mus musculus, UniProt O54890+P43406); assay: Cell adhesion assay, CHOK1-mαvβ3 cells on vitronectin; type: cell-based; settings: FIG. 11
T9 construct: expressed in transfected cells
Experimental: Cell adhesion assay. For plate preparation, Epic 384-well assay plates (Corning #5040) were washed with OptiMEM™ (Gibco #31985-070) and coated with murine fibronectin (Abcam #ab92784) at a concentration of 0.1 μg/well for CHO-α5KO-mαvβ1 cells; murine vitronectin (Abcam #ab92727) at 0.075 μg/well for CHO-mαvβ3 cells; or murine vitronectin at 0.125 μg/well for CHO-mαvβ5 (all at a volume of 25 μL/well in OptiMEM™), for one hour. Coating solution was then removed by flicking and plates were washed with OptiMEM™ and blocked with 25 μL/well of assay buffer (1% Ovalbumin (Sigma #A5503-10G) in OptiMEM™ containing 1×Pen-Strep (Gibco #15140-148)). A 5-minute baseline reading was taken on a Corning Epica Plate Reader (Model: Epic BT-157900) before removing the assay buffer and adding cells pre-incubated with inhibitors. The Epic™ plate reader detects cellular mass redistribution (adhesion) on the plate surface as a picometer wavelength shift over time. For inhibitor titration preparation: fivefold serial dilutions of small molecule inhibitor MK-0429 or antibody inhibitor Ab-31 were prepared in assay buffer at 4× the final concentration in a 384-well polypropylene plate in a volume of 15 μL per well, starting at a concentration of 800 nM. […]

T7 sequence (P06756 31-992 limits assumed): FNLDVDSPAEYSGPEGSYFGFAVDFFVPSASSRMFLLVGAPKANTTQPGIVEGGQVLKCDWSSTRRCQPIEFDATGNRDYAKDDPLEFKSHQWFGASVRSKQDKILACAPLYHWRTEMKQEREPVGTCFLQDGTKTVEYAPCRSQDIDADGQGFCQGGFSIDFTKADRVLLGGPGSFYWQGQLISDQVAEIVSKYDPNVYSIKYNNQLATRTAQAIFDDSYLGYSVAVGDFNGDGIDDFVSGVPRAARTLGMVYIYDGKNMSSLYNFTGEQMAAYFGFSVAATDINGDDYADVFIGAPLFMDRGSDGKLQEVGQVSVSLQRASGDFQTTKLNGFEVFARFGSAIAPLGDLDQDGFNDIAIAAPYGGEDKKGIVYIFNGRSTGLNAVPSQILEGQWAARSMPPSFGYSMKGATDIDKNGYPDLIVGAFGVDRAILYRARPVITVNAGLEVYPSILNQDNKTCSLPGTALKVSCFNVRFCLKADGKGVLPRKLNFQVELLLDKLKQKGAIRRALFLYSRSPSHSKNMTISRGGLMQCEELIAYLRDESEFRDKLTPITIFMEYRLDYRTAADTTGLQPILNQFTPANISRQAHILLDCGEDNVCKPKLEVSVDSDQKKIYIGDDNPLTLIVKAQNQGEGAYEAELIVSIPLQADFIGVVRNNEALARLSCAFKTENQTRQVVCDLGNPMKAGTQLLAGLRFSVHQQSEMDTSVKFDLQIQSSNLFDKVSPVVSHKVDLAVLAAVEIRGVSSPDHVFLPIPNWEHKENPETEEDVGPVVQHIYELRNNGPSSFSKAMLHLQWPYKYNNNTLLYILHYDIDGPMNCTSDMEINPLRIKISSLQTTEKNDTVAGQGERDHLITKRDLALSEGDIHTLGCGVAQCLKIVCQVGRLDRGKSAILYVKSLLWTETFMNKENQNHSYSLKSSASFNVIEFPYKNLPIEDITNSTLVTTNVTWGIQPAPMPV
T7 sequence (P05556 21-728 limits assumed): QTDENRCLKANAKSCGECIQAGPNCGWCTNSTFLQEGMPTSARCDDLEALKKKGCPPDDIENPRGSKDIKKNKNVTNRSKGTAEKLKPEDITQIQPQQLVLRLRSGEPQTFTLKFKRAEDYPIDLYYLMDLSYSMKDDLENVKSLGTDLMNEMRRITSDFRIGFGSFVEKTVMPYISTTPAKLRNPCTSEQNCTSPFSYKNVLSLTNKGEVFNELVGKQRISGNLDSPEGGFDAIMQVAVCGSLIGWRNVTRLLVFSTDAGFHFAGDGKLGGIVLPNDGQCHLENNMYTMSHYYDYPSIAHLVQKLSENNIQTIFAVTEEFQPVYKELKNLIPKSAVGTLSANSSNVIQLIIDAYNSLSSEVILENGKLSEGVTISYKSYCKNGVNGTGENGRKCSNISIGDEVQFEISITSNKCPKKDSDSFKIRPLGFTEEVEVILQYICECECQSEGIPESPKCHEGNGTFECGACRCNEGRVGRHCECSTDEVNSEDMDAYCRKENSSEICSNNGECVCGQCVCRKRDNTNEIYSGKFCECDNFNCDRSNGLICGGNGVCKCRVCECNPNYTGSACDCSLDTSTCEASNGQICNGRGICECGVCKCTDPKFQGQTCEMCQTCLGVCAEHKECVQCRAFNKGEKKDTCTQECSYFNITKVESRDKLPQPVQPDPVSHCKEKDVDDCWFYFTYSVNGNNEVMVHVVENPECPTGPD
T8 sequence (P08648 42-995 limits assumed): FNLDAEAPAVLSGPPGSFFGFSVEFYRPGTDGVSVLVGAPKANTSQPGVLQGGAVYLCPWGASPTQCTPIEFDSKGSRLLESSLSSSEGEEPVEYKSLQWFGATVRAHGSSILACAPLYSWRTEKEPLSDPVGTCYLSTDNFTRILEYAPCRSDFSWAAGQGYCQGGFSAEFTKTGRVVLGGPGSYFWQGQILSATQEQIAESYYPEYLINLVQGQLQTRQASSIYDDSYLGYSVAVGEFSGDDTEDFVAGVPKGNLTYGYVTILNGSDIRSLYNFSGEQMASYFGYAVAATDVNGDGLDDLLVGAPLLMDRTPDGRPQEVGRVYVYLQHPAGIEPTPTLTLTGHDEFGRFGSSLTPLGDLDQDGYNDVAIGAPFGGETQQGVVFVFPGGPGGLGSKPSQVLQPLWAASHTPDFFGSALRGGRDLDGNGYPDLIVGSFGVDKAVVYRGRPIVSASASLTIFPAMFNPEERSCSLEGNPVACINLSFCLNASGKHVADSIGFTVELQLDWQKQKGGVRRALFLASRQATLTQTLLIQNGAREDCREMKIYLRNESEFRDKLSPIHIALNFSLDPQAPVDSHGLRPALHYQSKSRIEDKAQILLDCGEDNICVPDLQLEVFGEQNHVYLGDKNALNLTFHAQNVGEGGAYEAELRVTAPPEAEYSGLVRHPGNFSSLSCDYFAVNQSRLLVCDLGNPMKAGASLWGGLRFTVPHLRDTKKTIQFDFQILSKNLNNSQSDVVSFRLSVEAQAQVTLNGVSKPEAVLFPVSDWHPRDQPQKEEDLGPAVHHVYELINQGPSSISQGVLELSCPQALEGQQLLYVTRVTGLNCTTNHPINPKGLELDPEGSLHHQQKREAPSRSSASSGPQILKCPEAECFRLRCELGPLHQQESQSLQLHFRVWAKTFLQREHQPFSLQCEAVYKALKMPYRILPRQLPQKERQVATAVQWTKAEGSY
T8 sequence (P05556 21-728 limits assumed): as the sequence (P05556 21-728 limits assumed) above
T6 sequence (P43406 31-988 limits assumed): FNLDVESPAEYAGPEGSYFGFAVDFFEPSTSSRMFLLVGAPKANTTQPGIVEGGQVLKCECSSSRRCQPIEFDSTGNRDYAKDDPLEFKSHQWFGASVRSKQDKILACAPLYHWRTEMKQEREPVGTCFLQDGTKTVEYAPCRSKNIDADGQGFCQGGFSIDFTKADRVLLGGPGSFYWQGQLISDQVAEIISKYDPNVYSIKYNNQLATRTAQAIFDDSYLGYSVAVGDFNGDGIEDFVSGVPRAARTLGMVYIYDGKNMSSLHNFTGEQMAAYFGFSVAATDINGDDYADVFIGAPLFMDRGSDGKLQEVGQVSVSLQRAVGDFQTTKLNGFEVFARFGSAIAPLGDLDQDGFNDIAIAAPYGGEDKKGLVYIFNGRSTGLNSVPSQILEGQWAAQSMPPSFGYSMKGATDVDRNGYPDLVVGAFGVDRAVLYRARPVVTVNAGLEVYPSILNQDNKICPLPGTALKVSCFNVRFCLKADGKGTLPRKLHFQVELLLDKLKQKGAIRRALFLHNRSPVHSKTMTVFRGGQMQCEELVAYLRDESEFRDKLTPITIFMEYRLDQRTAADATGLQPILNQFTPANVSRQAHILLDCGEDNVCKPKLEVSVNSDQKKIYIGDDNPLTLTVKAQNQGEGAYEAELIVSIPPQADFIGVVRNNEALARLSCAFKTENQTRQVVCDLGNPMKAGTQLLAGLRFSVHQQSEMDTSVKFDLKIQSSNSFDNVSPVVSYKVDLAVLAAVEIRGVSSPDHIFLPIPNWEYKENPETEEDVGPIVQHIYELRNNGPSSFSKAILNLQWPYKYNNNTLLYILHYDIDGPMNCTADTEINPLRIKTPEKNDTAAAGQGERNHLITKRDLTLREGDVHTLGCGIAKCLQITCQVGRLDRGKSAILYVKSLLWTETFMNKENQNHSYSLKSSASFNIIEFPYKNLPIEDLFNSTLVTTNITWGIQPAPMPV
T6 sequence (Q0VBD0 22-681 limits assumed): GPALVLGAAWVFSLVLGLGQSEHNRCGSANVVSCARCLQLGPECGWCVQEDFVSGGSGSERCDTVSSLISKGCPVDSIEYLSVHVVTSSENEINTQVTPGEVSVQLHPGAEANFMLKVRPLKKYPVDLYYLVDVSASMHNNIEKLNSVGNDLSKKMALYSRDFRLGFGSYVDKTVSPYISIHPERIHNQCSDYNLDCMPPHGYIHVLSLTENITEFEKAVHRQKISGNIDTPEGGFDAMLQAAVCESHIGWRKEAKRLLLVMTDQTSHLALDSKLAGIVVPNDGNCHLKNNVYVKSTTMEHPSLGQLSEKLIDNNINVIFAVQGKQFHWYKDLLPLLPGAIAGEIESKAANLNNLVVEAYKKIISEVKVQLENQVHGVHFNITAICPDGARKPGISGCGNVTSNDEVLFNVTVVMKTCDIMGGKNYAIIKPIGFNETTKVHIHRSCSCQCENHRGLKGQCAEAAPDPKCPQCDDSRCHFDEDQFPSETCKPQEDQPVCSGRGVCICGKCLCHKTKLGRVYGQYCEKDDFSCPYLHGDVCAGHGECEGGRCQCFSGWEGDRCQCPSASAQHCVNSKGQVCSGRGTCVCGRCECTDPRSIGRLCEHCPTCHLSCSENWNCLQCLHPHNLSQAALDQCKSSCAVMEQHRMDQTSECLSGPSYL
T5 sequence (P43406 31-988 limits assumed): as the sequence (P43406 31-988 limits assumed) above
T5 sequence (Q9Z0T9 22-708 limits assumed): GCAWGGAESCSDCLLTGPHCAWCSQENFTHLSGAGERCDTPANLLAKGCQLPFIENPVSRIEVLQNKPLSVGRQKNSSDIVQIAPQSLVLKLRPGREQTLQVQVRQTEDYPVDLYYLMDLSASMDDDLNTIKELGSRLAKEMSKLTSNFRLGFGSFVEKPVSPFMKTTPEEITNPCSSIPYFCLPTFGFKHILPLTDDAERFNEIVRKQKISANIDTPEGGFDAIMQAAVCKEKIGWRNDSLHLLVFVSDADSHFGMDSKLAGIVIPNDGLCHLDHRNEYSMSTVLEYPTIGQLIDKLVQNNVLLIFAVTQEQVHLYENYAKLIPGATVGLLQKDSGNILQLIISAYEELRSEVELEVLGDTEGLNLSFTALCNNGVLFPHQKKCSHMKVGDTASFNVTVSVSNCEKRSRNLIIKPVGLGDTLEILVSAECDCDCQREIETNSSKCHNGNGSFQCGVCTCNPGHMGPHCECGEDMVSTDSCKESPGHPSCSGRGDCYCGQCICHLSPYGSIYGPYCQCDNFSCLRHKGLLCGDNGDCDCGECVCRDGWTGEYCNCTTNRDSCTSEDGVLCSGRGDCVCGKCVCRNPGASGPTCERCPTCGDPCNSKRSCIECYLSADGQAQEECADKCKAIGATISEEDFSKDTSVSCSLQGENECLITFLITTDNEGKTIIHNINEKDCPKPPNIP

inhibition of latent TGFβ activation, mouse αvβ6 co-culture (mouse αvβ6): strong inhibitory effect
inhibition of latent TGFβ activation, human αvβ6 co-culture (human αvβ6): strong inhibitory effect
inhibition of latent TGFβ activation, human αvβ8 co-culture (human αvβ8): strong inhibitory effect
inhibition of latent TGFβ activation, mouse αvβ1 co-culture (mouse αvβ1): strong inhibitory effect
IC50 (mαvβ6): 0.4 nM
IC50 (mαvβ8): 5.3 nM
IC50 (hαvβ1; FIG. 3D, curve-fitted, read-out: IC50 against human αvβ1, AlphaLISA): 0.46 nM
IC50 (hαvβ1; Table 11, read-out: IC50 Human integrin AlphaLISA assays hαvβ1): 1 nM
IC50 (hα5β1; FIG. 3D, curve-fitted, read-out: IC50 against human αvβ1 (as printed, sixth integrin listed), AlphaLISA): 17.3 nM
IC50 (hα5β1; Table 11, read-out: IC50 Human integrin AlphaLISA assays hα5β1): 26.5 nM
cell adhesion of mouse αvβ3 on a vitronectin matrix (mouse αvβ3): decreased
Compound: COc1ccc([C@H](CC(=O)O)N2CCN(CCCc3ccc4c(n3)NCCC4)C2=O)cn1 [MK-0429, (3S)-3-(6-methoxypyridin-3-yl)-3-[2-oxo-3-[3-(5,6,7,8-tetrahydro-1,8-naphthyridin-2-yl)propyl]imidazolidin-1-yl]propanoic acid]
safety profile [1]: relatively well-tolerated safety profile
inhibition of adhesion of CHOK1 parental cells on fibronectin (CHOK1 parental cells): little inhibitory activity
